# Laboratory results: US8927732B2, “Biotin stannane for HPLC-free radioiodination” (General Electric Company, priority 2012, dated 2015)
# Biological target: streptavidin resin column (Streptomyces avidinii, UniProt P22629)
# Assay: Purification with streptavidin resin column in the presence of additives (solubility enhancing agent study)
# Settings: eluent PBS
# Experimental: To an Eppendorf vial were added 56.6 μg precursor 4 (56.6 μL, 1.0 mg/mL, EtOH), 5 μL AcOH, Na^125I (18.5 MBq or 500 μCi, pH 8˜11 in aqueous NaOH) and iodogen (50 μL, 0.2 mg/mL in EtOH), subsequently. The reaction mixture was allowed to sit at room temperature for 20 minutes, with occasional swirling. After quenching with 100 μL of Na2S2O3 (0.1 M aq.), the mixture was diluted with 100 μL of EtOH then added to the binding buffer tested as described below.
# A streptavidin resin column was packed using 1.6 mL of resin slurry (0.8 mL of actual resin) as described previously and washed with the appropriate binding buffer (4.0 mL, 5 cv). An 80 μL aliquot of the above radiolabeling mixture was diluted with the appropriate binding buffer (920 μL) and mixed for 10 minutes before loading onto streptavidin column. After incubation for 20 minutes, radiolabeled product was eluted off the column with binding buffer (three 0.5 mL fractions collected). All fractions (including a forerun fraction collected while loading the reaction mixture onto column) were subjected to HPLC analysis before being combined.
# streptavidin resin column, sequence (P22629 25-183): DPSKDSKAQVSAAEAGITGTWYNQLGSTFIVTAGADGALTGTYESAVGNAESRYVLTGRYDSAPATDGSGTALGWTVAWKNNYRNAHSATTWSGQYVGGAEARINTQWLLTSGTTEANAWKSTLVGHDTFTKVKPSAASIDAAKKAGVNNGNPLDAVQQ
smiles,measurement,setting,value
O=C(OCc1ccccc1)c1cccc([125I])c1 [Compound 125I-3IBABn],Activity left on column,10% HP-β-CD w/v,16%
same,Activity left on column,20% HP-β-CD w/v,13%
same,Activity left on column,40% HP-β-CD w/v,7%
